TGI and GI50 data for 22 compounds are collected here from PubChem BioAssay (NCI).

Each structure is given as a SMILES string. “And” between values parts separate entries of the source, which are not always exact repeats. Identical values can stand only once.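 Tested at 5 concentrations; 48 h exposure; 96-well plates; endpoints linearly interpolated, else capped at highest concentration. Here, GI50 denotes the concentration required for 50% inhibition of growth. Definition used: TGI = concentration required for complete inhibition of growth.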

Test systems include CAKI-1 renal; OVCAR-4 ovarian; MDA-MB-231 breast; EKVX NSCLC; SR leukemia; RPMI-8226 leukemia; A549 NSCLC; CCRF-CEM leukemia; SF-539 CNS; UACC-62 melanoma.
Assay in all cases: DTP human tumour cell line panel, 48 h

For orientation: TGI means the concentration giving total growth inhibition. Low values mean more potent growth arrest, high ones less potent growth arrest. The term GI50 denotes the concentration at which growth is held to half of that of the control.

In the case of `C/C(=C\CNc1ncnc2nc(Cl)[nH]c12)CO`, the TGI with CAKI-1 renal, with OVCAR-4 ovarian, with MDA-MB-231 breast, in the assay with EKVX NSCLC, with SR leukemia and with RPMI-8226 leukemia was over 100 µM throughout. Further, the TGI with A549 NSCLC, in the assay on CCRF-CEM leukemia and in the assay on SF-539 CNS was over 100 µM each time.

`O=P(O)(O)OP(=O)(O)O`: the TGI in the assay with UACC-62 melanoma, with CAKI-1 renal, in the assay on OVCAR-4 ovarian, in the assay on MDA-MB-231 breast, in the assay with EKVX NSCLC and in the assay on SR leukemia was over 100 µM in each case. In addition, the TGI in the assay on RPMI-8226 leukemia, in the assay with A549 NSCLC, with CCRF-CEM leukemia and in the assay with SF-539 CNS was over 100 µM in each case.

Regarding `COC(=O)c1c(O)ccc2c1c1c(n2Cc2ccccn2)C(=O)c2ccccc2C1`, the TGI with UACC-62 melanoma was over 100 µM; in the assay with CAKI-1 renal, over 100 µM; in the assay on OVCAR-4 ovarian it was over 100 µM; in the assay with MDA-MB-231 breast, over 100 µM; in the assay with SR leukemia, over 100 µM; with RPMI-8226 leukemia it was 59.9 µM. The TGI in the assay with A549 NSCLC, with CCRF-CEM leukemia and with SF-539 CNS was over 100 µM each time.

Regarding `Fc1cc(C2=C[C@H](c3ccc4c(c3)OCO4)NC(=S)N2)c(Cl)cc1Cl`, the TGI in the assay with UACC-62 melanoma, in the assay with CAKI-1 renal, in the assay on OVCAR-4 ovarian, in the assay on MDA-MB-231 breast, with EKVX NSCLC and in the assay on SR leukemia was over 100 µM each time. Besides, the TGI in the assay on RPMI-8226 leukemia, with A549 NSCLC, in the assay on CCRF-CEM leukemia and in the assay on SF-539 CNS was over 100 µM in each case.

Turning to `Clc1ccc(NCc2nnc(COc3ccc(OCc4nnc(CNc5ccc(Cl)cc5)o4)c(Cl)c3)o2)cc1`, the TGI with UACC-62 melanoma was over 100 µM; in the assay on CAKI-1 renal, over 100 µM; in the assay on MDA-MB-231 breast, 63.3 µM; in the assay with EKVX NSCLC it was over 100 µM; in the assay with SR leukemia, 13.6 µM; with RPMI-8226 leukemia, 36.9 µM. For the same compound, the TGI is over 100 µM with A549 NSCLC and 44.8 µM with CCRF-CEM leukemia.

As for `CCOC(=O)C(C)OC(=O)c1ccc(C)cc1` (centres undefined), the TGI in the assay on UACC-62 melanoma, in the assay on EKVX NSCLC, in the assay on SR leukemia, with A549 NSCLC, with CCRF-CEM leukemia and in the assay on SF-539 CNS was over 100 µM in each case.

Turning to `CN(C)C/C=C(/c1ccc(Br)cc1)c1cccnc1`, the TGI in the assay with UACC-62 melanoma was 39.1 µM; in the assay with CAKI-1 renal, over 100 µM; in the assay on OVCAR-4 ovarian, over 100 µM; in the assay with MDA-MB-231 breast, over 100 µM; in the assay on EKVX NSCLC, over 100 µM; in the assay on SR leukemia, over 100 µM. The TGI in the assay with RPMI-8226 leukemia, in the assay with A549 NSCLC and in the assay on SF-539 CNS was over 100 µM each time.

On to `CCCCCCOC(=O)C(N)Cc1ccc(OC)cc1` (centres undefined), for which the TGI with UACC-62 melanoma, in the assay with CAKI-1 renal, in the assay with OVCAR-4 ovarian, in the assay with MDA-MB-231 breast, in the assay with EKVX NSCLC and with SR leukemia was over 100 µM throughout. Besides, the TGI in the assay on A549 NSCLC, in the assay with CCRF-CEM leukemia and in the assay with SF-539 CNS was over 100 µM each time.

In the case of `O=C(N/N=C\c1ccc([N+](=O)[O-])cc1)Nc1ccccc1`, the TGI in the assay with UACC-62 melanoma, in the assay with CAKI-1 renal, with OVCAR-4 ovarian, with SR leukemia, with RPMI-8226 leukemia and in the assay on CCRF-CEM leukemia was over 100 µM throughout.

`NC(CCc1ccccc1)(C(=O)O)c1ccccc1` (centres undefined): the TGI in the assay with UACC-62 melanoma, with CAKI-1 renal, in the assay with OVCAR-4 ovarian, with MDA-MB-231 breast, with EKVX NSCLC and in the assay with SR leukemia was over 100 µM in each case. For the same compound, the TGI in the assay with A549 NSCLC and in the assay with CCRF-CEM leukemia was over 100 µM each time.

On to `O=c1oc2c(ccc3occc32)c(N2CCCCC2)c1-c1ccccc1`, for which the TGI is over 100 µM with UACC-62 melanoma; over 100 µM in the assay on OVCAR-4 ovarian; over 100 µM with EKVX NSCLC; over 100 µM in the assay with A549 NSCLC; over 59.5 µM in the assay with CCRF-CEM leukemia; over 100 µM with SF-539 CNS.

Take `C[C@H](Nc1ccc(C#N)n(C)c1=O)c1cc2cc(Cl)ccc2[nH]c1=O`: the GI50 with UACC-62 melanoma was 20.1 µM; in the assay on CAKI-1 renal, 19.6 µM; in the assay with OVCAR-4 ovarian it was 19.3 µM; in the assay on MDA-MB-231 breast, 23.2 µM; in the assay with EKVX NSCLC it was 21.1 µM; with SR leukemia, 27.7 µM. Besides, the GI50 with RPMI-8226 leukemia is 14.2 µM; with A549 NSCLC, 24.3 µM; in the assay with CCRF-CEM leukemia it was 24.5 µM; in the assay on SF-539 CNS, 40.2 µM. Moreover, the TGI with UACC-62 melanoma is 77.6 µM; in the assay with CAKI-1 renal it was over 100 µM; with OVCAR-4 ovarian, 85.6 µM; with MDA-MB-231 breast, 98.4 µM; with EKVX NSCLC it was over 100 µM; in the assay with SR leukemia, over 100 µM. Moreover, the TGI in the assay with RPMI-8226 leukemia is 49.3 µM; in the assay on A549 NSCLC, over 100 µM; in the assay with CCRF-CEM leukemia it was over 100 µM; in the assay with SF-539 CNS, over 100 µM.

Regarding `CC(Br)C(=O)c1ccc2cc(Br)c3ccccc3c2c1` (centres undefined), the TGI is 28.7 µM in the assay on UACC-62 melanoma; 30.1 µM in the assay with CAKI-1 renal; 32.2 µM in the assay with OVCAR-4 ovarian; 30.2 µM in the assay on MDA-MB-231 breast; 28.9 µM with EKVX NSCLC; 21.2 µM with SR leukemia. Moreover, the TGI in the assay on RPMI-8226 leukemia was 21.2 µM; in the assay on A549 NSCLC, 39.1 µM; in the assay on CCRF-CEM leukemia, 14.6 µM.

In the case of `NCCCCN`, the TGI in the assay on UACC-62 melanoma is over 100 µM; in the assay with CAKI-1 renal, 30.2 µM; in the assay with OVCAR-4 ovarian it was 51.5 µM; in the assay on MDA-MB-231 breast, over 100 µM; in the assay with EKVX NSCLC it was over 100 µM; with SR leukemia, over 100 µM. Also, the TGI in the assay on A549 NSCLC, in the assay with CCRF-CEM leukemia and in the assay on SF-539 CNS was over 100 µM throughout.

Turning to `CCOC(=O)C(=CNC(Cc1c[nH]c2ccccc12)C(=O)OC)C(=O)OCC` (centres undefined), the TGI with UACC-62 melanoma, with CAKI-1 renal, in the assay with EKVX NSCLC, with RPMI-8226 leukemia, in the assay on CCRF-CEM leukemia and in the assay with SF-539 CNS was over 100 µM each time.

As for `CC(C)(C)c1ccc(O)c(Br)c1`, the TGI in the assay with UACC-62 melanoma, with OVCAR-4 ovarian, in the assay on MDA-MB-231 breast, in the assay with EKVX NSCLC, in the assay on SR leukemia and with RPMI-8226 leukemia was over 100 µM each time. Further, the TGI in the assay with A549 NSCLC, in the assay with CCRF-CEM leukemia and with SF-539 CNS was over 100 µM throughout.

Take `CC(C)(C)OC(=O)N1C(C2=COc3ccccc3O2)=COc2cccnc21`: the TGI amounted to 3.17 µM in the assay on UACC-62 melanoma; 6.82 µM in the assay with CAKI-1 renal; 4.2 µM in the assay on OVCAR-4 ovarian; 4.01 µM in the assay on MDA-MB-231 breast; 4.03 µM in the assay with EKVX NSCLC; 5.9 µM in the assay with SR leukemia. In addition, the results for the TGI in the assay with RPMI-8226 leukemia, in the assay with A549 NSCLC and in the assay on SF-539 CNS were 4.43 µM, 4.38 µM and 4.01 µM, respectively.

Consider `O=C(CSc1nc2ccc(Cl)cc2c(=O)n1-c1ccccc1)N=Nc1c(O)[nH]c2ccc(F)cc12`, for which the TGI was determined as 7.1 µM with UACC-62 melanoma; 11.6 µM with CAKI-1 renal; 5.65 µM with OVCAR-4 ovarian; 5.82 µM in the assay on MDA-MB-231 breast; 14.4 µM with EKVX NSCLC; 3.9 µM in the assay with RPMI-8226 leukemia. The values for the TGI with A549 NSCLC, in the assay with CCRF-CEM leukemia and in the assay on SF-539 CNS were 5.42 µM, 6.34 µM and 15.2 µM, respectively.

Regarding `Cc1cc(N2CCOCC2)nc(N(CCCNc2ccnc3cc(Cl)ccc23)Cc2ccc3c(c2)OCO3)n1`, the GI50 was 1.68 µM in the assay with MDA-MB-231 breast; 2.29 µM with EKVX NSCLC; 0.186 µM with SR leukemia; 1.45 µM in the assay on RPMI-8226 leukemia; 1.61 µM with A549 NSCLC; 0.355 µM in the assay on CCRF-CEM leukemia. Besides, the TGI amounted to 3.32 µM in the assay with MDA-MB-231 breast; 5.55 µM in the assay on EKVX NSCLC; 0.593 µM in the assay on SR leukemia; 4 µM in the assay with RPMI-8226 leukemia; 3.12 µM with A549 NSCLC; 2.1 µM with CCRF-CEM leukemia.

Take `Cc1cc(O)c2c(c1O)C(=O)c1c(O)ccc(O)c1C2=O`: the TGI with UACC-62 melanoma, with CAKI-1 renal, in the assay on OVCAR-4 ovarian, with MDA-MB-231 breast, with EKVX NSCLC and in the assay with SR leukemia was over 100 µM in each case. The TGI in the assay on RPMI-8226 leukemia, in the assay on A549 NSCLC, in the assay with CCRF-CEM leukemia and in the assay on SF-539 CNS was over 100 µM in each case.

On to `NC(N)=NS(=O)(=O)c1ccc(Nc2c3ccccc3nc3c(C(=O)N4CCN(CCO)CC4)ccc(Cl)c23)cc1`, for which the TGI in the assay with UACC-62 melanoma, in the assay with CAKI-1 renal, with OVCAR-4 ovarian, in the assay with RPMI-8226 leukemia, in the assay with A549 NSCLC and in the assay with CCRF-CEM leukemia was over 100 µM throughout. This compound displayed a TGI with SF-539 CNS of over 100 µM.

`COC1OC(C(=O)CP(=O)(OC)OC)C(OCc2ccccc2)C(OCc2ccccc2)C1OCc1ccccc1` (centres undefined): the TGI with UACC-62 melanoma is 26.6 µM and 28 µM; in the assay on CAKI-1 renal, 36 µM and 36.7 µM; in the assay with OVCAR-4 ovarian it was 28.4 µM and 36.7 µM; in the assay with MDA-MB-231 breast, 31.7 µM and 29.9 µM; in the assay with EKVX NSCLC it was 29.4 µM and 32.2 µM; in the assay on SR leukemia, 39.1 µM and 65.7 µM. For the same compound, the TGI is 31.2 µM and 31.9 µM in the assay on A549 NSCLC; > 100 µM and 96.3 µM in the assay with CCRF-CEM leukemia; 33 µM and 31.9 µM with SF-539 CNS.
